According to PubChem BioAssay (NCI):
Several values for one entry are separate records, joined by “and”; a condition that tells them apart may be missing. Equal entries are not always repeated.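 Method: 48-hour compound exposure of cells in 96-well plates, five concentrations, linear interpolation of endpoints. TGI denotes the concentration required for complete inhibition of growth.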

Columns and labels:
Experiment in all cases: NCI-60 cell line screen, 48 h
[1] = system: DMS 273 small cell lung
[2] = system: UACC-257 melanoma
[3] = system: HL-60(TB) leukemia
[4] = system: EKVX NSCLC
[5] = system: LOX IMVI melanoma
[6] = system: KM20L2 colon
[7] = system: ACHN renal
[8] = system: K-562 leukemia
[9] = system: SR leukemia
[10] = system: RXF-631 renal
[11] = system: MALME-3M melanoma
[12] = system: IGROV1 ovarian
[13] = system: CAKI-1 renal
[14] = system: SF-295 CNS
[15] = system: TK-10 renal
[16] = system: SK-MEL-5 melanoma
[17] = system: U251 CNS
[18] = system: COLO 205 colon
[19] = system: MOLT-4 leukemia
[20] = system: HOP-18 NSCLC
[21] = system: SNB-19 CNS
[22] = system: SW-620 colon
[23] = system: A549 NSCLC
[24] = system: SNB-75 CNS
[25] = system: NCI-H522 lung
[26] = system: NCI-H460 lung
[27] = system: RPMI-8226 leukemia
[28] = system: SK-MEL-28 melanoma
[29] = system: 786-0 renal
[30] = system: LXFL 529 NSCLC
[31] = system: SNB-78 CNS
[32] = system: SN12C renal
[33] = system: SF-539 CNS
[34] = system: OVCAR-5 ovarian
[35] = system: UO-31 renal
[36] = system: HT29 colon
[37] = system: SK-OV-3 ovarian
[38] = system: NCI-H226 lung
[39] = system: HCT-116 colon
[40] = system: HCC-2998 colon
[41] = system: UACC-62 melanoma
[42] = system: HCT-15 colon
[43] = system: HOP-62 NSCLC
[44] = system: M19-MEL melanoma
[45] = system: A498 renal
[46] = system: DMS 114 small cell lung
[47] = system: HOP-92 NSCLC
[48] = system: OVCAR-4 ovarian
[49] = system: SF-268 CNS
[50] = system: OVCAR-3 ovarian
[51] = system: M14 melanoma
[52] = system: DLD-1 colon
[53] = system: KM12 colon
[54] = system: OVCAR-8 ovarian
[55] = system: RXF 393 renal
[56] = system: XF 498 CNS
[57] = system: NCI-H23 lung
[58] = system: SK-MEL-2 melanoma
[59] = system: CCRF-CEM leukemia

Compound: O=S(=O)(O)SC/C=C\CSS(=O)(=O)O
- TGI [1]: > 100 µM
- TGI [2]: > 100 µM
- TGI [3]: > 100 µM
- TGI [4]: > 100 µM
- TGI [5]: > 100 µM
- TGI [6]: > 100 µM
- TGI [7]: > 100 µM
- TGI [8]: > 100 µM
- TGI [9]: > 100 µM
- TGI [10]: > 100 µM
- TGI [11]: > 100 µM
- TGI [12]: > 100 µM
- TGI [13]: > 100 µM
- TGI [14]: > 100 µM
- TGI [15]: > 100 µM
- TGI [16]: > 100 µM
- TGI [17]: > 100 µM
- TGI [18]: > 100 µM
- TGI [19]: > 100 µM
- TGI [20]: > 100 µM
- TGI [21]: > 100 µM
- TGI [22]: > 100 µM
- TGI [23]: > 100 µM
- TGI [24]: > 100 µM
- TGI [25]: > 100 µM
- TGI [26]: > 100 µM
- TGI [27]: > 100 µM
- TGI [28]: > 100 µM
- TGI [29]: > 100 µM
- TGI [30]: > 100 µM
- TGI [31]: > 100 µM
- TGI [32]: > 100 µM
- TGI [33]: > 100 µM
- TGI [34]: > 100 µM
- TGI [35]: > 100 µM
- TGI [36]: > 100 µM
- TGI [37]: > 100 µM
- TGI [38]: > 100 µM
- TGI [39]: > 100 µM
- TGI [40]: > 100 µM
- TGI [41]: > 100 µM
- TGI [42]: > 100 µM
- TGI [43]: > 100 µM
- TGI [44]: > 100 µM
- TGI [45]: > 100 µM
- TGI [46]: > 100 µM
- TGI [47]: > 100 µM
- TGI [48]: > 100 µM
- TGI [49]: > 100 µM
- TGI [50]: > 100 µM
- TGI [51]: > 100 µM
- TGI [52]: > 100 µM
- TGI [53]: > 100 µM and 61.2 µM
- TGI [54]: > 100 µM
- TGI [55]: > 100 µM
- TGI [56]: > 100 µM
- TGI [57]: > 100 µM

Compound: Nc1ccc2c(c1)C(=O)N(OS(=O)(=O)c1ccccc1)C2=O
- TGI [1]: > 100 µM
- TGI [2]: > 100 µM
- TGI [3]: > 100 µM
- TGI [4]: > 100 µM
- TGI [5]: > 100 µM
- TGI [6]: > 100 µM
- TGI [7]: > 100 µM
- TGI [8]: > 100 µM
- TGI [10]: > 100 µM
- TGI [11]: > 100 µM
- TGI [12]: > 100 µM
- TGI [58]: > 100 µM
- TGI [13]: > 100 µM
- TGI [14]: > 100 µM
- TGI [15]: > 100 µM
- TGI [16]: > 100 µM
- TGI [17]: > 100 µM
- TGI [18]: > 100 µM
- TGI [20]: > 100 µM
- TGI [21]: > 100 µM
- TGI [22]: > 100 µM
- TGI [23]: > 100 µM
- TGI [24]: > 100 µM
- TGI [59]: > 100 µM
- TGI [25]: 60.7 µM
- TGI [26]: > 100 µM
- TGI [28]: > 100 µM
- TGI [29]: > 100 µM
- TGI [30]: > 100 µM
- TGI [31]: > 100 µM
- TGI [32]: > 100 µM
- TGI [33]: > 100 µM
- TGI [34]: > 100 µM
- TGI [35]: > 100 µM
- TGI [36]: > 100 µM
- TGI [37]: > 100 µM
- TGI [38]: > 100 µM
- TGI [39]: > 100 µM
- TGI [40]: > 100 µM
- TGI [41]: > 100 µM
- TGI [42]: > 100 µM
- TGI [43]: > 100 µM
- TGI [44]: > 100 µM
- TGI [45]: > 100 µM
- TGI [46]: > 100 µM
- TGI [47]: > 100 µM
- TGI [48]: > 100 µM
- TGI [49]: > 100 µM
- TGI [50]: > 100 µM
- TGI [51]: > 100 µM
- TGI [52]: > 100 µM
- TGI [53]: > 100 µM
- TGI [54]: > 100 µM
- TGI [55]: > 100 µM
- TGI [56]: > 100 µM
- TGI [57]: > 100 µM
